# Patent US6107064A, “Process for producing xanthine derivatives with bacteria and fungi” (Kyowa Hakko Kogyo Co., Ltd., priority 1994, dated 2000)
# Key:
# adenosine A1 receptor = biological target: T1, adenosine A1 receptor (Rattus norvegicus, UniProt P25099); assay: Adenosine A1 Receptor Binding Test (3H-CHA binding, corpus striatum); conditions: 3H-CHA 1.1 nM, 25° C., 90 minutes
# T1 construct: from tissue; host or cells: rat corpus striatum, washed membrane suspension
# T1 sequence (P25099 1-326): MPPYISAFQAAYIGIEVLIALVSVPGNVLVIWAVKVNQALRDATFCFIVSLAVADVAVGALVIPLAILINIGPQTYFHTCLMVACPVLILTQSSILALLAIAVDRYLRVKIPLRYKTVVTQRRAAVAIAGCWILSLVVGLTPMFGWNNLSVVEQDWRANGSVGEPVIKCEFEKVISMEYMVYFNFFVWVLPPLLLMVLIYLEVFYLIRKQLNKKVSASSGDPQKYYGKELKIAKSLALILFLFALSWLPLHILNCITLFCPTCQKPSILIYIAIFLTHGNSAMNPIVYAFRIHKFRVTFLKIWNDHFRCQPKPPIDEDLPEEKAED
# Method: The test was conducted according to the method of Bruns et al. [Mol. Pharmacol., 29, 331 (1986)] with slight modification.
# Corpus striatum of a rat was suspended in ice-cooled 50 mM Tris hydroxymethyl aminomethane hydrochloride (Tris HCl) buffer (pH 7.7) by using Polytron homogenizer (manufactured by Kinematicas Co.) The suspension was centrifuged (50,000×g, 10 minutes), and the precipitate was suspended again in the same amount of 50 mM Tris HCl buffer. The suspension was centrifuged under the same conditions, and the final precipitate was suspended once again in 50 mM Tris HCl buffer to give a tissue concentration of 100 mg (wet weight)/ml. The tissue suspension was allowed to stand at 37° C. for 30 minutes in the presence of 0.02 unit/mg tissue of adenosine deaminase (manufactured by Sigma Co.) The tissue suspension was centrifuged (50,000×g, 10 minutes) and to the obtained precipitates was added 50 mM Tris HCl buffer to give a tissue concentration of 10 mg (wet weight)/ml.
# To 1 ml of the tissue suspension thus prepared were added 50 μl of cyclohexyladenosine labeled with tritium (^3 H-CHA: 27 Ci/mmol, manufactured by New England Nuclear) (final concentration: 1.1 nM) and 50 μl of a test compound. The resulting mixture was allowed to stand at 25° C. for 90 minutes and then rapidly filtered by suction through a glass fiber filter (GF/C, manufactured by Whatman Co.) The filter was immediately washed three times with 5 ml each of ice-cooled 50 mM Tris HCl buffer, and transferred to a vial, and a scintillator (EX-H, manufactured by Wako Pure Chemical Industries, Ltd.) was added thereto. The radioactivity on the filter was determined with a liquid scintillation counter (manufactured by Packard Instrument Co.)
# The inhibition rate (Ki value) of the test compound against the binding of A1 receptors (^3 H-CHA binding) was calculated by the equation of Cheng-Prusoff. [formula] [Notes]1. "B" means the amount of radioactivity of ^3 H-CHA bound in the presence of a test compound at various concentrations.
# 2. "T" means the amount of radioactivity of ^3 H-CHA bound in the absence of a test compound.
# 3. "IN" means the amount of radioactivity of ^3 H-CHA bound in the presence of 10 μM N^6 -(L-2-phenylisopropyl)-adenosine (Sigma Co.)
# Wistar rats = assay: Diuretic Effect; assay type: in vivo, rat (Wistar, male); conditions: for Increase in amount of K+ excreted / Increase in amount of Na+ excreted / Increase in amount of urine: control 0
# Method: The experiment was carried out by using Wistar rats (male; 150 to 300 g). The rats were starved for 18 hours prior to the administration of a test compound (n=4 to 5). After a test compound dissolved in 0.4% methanol, 1% dimethylsulfoxde, and 0.01N sodium hydroxide/physiological saline was administered intravenously to the rat, the physiological saline (25 ml/kg) was orally administered thereto. Alternatively, a test compound dissolved in the physiological saline (25 ml/kg) was orally administered to the rats. Urine was collected from the rats during 4 hours after the oral administration, and urine volume was measured by a graduated measuring cylinder, and the electrolytes (Na^+ and K^+) in the urine were determined by flame photometer (775A, manufactured by Hitachi, Ltd.) The test results are shown in Tables 3 and 4.
# [1] = tested on: Wistar rats, glycerol-induced renal insufficiency; assay: Renal-Protecting Activity (Glycerol-Induced Renal Insufficiency Model); assay type: in vivo, rat (Wistar, male); conditions: for effect on increases in serum creatinine and serum urea-nitrogen: 10 mg/kg, ip
# Method: Renal insufficiency is the condition that homeostasis of a body fluid is unable to be maintained by disorder of renal function. It is known that subcutaneous or intramuscular administration of glycerol to rats induces acute renal insufficiency characterized by renal tubular disturbance [Can. J. Physiol.
# Male Wistar rats were fisted from both food and water for 18 hours. A test compound was intraperitoneally administered to the rats (dose; 0.1 ml/100 g). After 30 minutes, the rats were anesthetized with ether and the back skin was picked up and 0.8 ml/100 […] of 50% glycerol was subcutaneously administered. Twenty four hours after the glycerol injection, the rats were anesthetized with ether and 5 ml of blood was collected from the descending aorta. A sample of the collected blood was allowed to stand for 30 minutes or longer and then centrifuged at 3,000 rpm for 10 minutes to obtain the serum. Creatinine in the serum sample and urea nitrogen in the serum were determined with an autoanalyzer (AU510, Olympus Optical Co., Ltd.) using Olympus AU500/550 exclusive reagent "Katayama" in both of creatinine test (Jaffe' method) and urea-nitrogen test (enzyme method).
# [2] = 0.1 mg/kg po, 4 hours, control 1.00
# [3] = 1.6 mg/kg po, 4 hours, control 1.00
# [4] = 1 mg/kg ip, 24 hours after glycerol, control 4.57 ± 0.31, ***p < 0.001 (Student's t test)
# [5] = 1 mg/kg ip, 24 hours after glycerol, control 164.9 ± 10.3, ***p < 0.001 (Student's t test)
# [6] = 0.01 mg/kg po, 4 hours, control 1.00
smiles,measurement,setting,value
"CCCn1c(=O)c2[nH]c([C@]34C[C@@H]5C[C@H](C3)[C@@H](O)[C@H]4C5)nc2n(CCC)c1=O (relative stereo) [Compound 2, 8-(trans-6-hydroxy-3-tricyclo[3.3.1.0^3,7]nonyl)-1,3-dipropylxanthine]",Ki,adenosine A1 receptor,240 pM
same,Increase in amount of K+ excreted,"Wistar rats; 0.1 mg/kg po, 4 hours",12%
same,Increase in amount of Na+ excreted,"Wistar rats; 0.1 mg/kg po, 4 hours",107%
same,Increase in amount of urine,"Wistar rats; 0.1 mg/kg po, 4 hours",134%
same,Na+/K+,Wistar rats; [2],1.85
same,Increase in amount of K+ excreted,"Wistar rats; 1.6 mg/kg po, 4 hours",15%
same,Increase in amount of Na+ excreted,"Wistar rats; 1.6 mg/kg po, 4 hours",220%
same,Increase in amount of urine,"Wistar rats; 1.6 mg/kg po, 4 hours",297%
same,Na+/K+,Wistar rats; [3],2.77
same,Amount of creatinine in serum,[1]; [4],1.88 ± 0.20 mg/dL
same,Amount of urea-nitrogen in serum,[1]; [5],58.0 ± 8.8 mg/dL
"CCCn1c(=O)c2[nH]c([C@@]34C[C@H]5C[C@@H]3C[C@@H](C4)[C@@H]5O)nc2n(CCC)c1=O [Compound 1, 8-(Trans-9-hydroxy-3-tricyclo[3.3.1.0^3,7]nonyl)-1,3-dipropylxanthine]",Ki,adenosine A1 receptor,230 pM
same,Amount of K+ excreted,"Wistar rats; 3 μg/kg iv, n = 5, 4 hours, control 1.47 ± 0.31",1.24 ± 0.10 mEq/kg
same,Na+/K+,"Wistar rats; 3 μg/kg iv, n = 5, 4 hours, control 1.52",2.99
same,Amount of Na+ excreted,"Wistar rats; 3 μg/kg iv, n = 5, 4 hours, control 2.23 ± 0.61, **p < 0.01 (Dunnett's test)",3.71 ± 0.12 mEq/kg
same,Amount of urine,"Wistar rats; 3 μg/kg iv, n = 5, 4 hours, control 14.5 ± 1.8, *p < 0.05 (Dunnett's test)",26.4 mL/kg
same,Increase in amount of K+ excreted,"Wistar rats; 0.01 mg/kg po, 4 hours",11%
same,Increase in amount of Na+ excreted,"Wistar rats; 0.01 mg/kg po, 4 hours",139%
same,Increase in amount of urine,"Wistar rats; 0.01 mg/kg po, 4 hours",99%
same,Na+/K+,Wistar rats; [6],2.16
same,Increase in amount of K+ excreted,"Wistar rats; 0.1 mg/kg po, 4 hours",-9%
same,Increase in amount of Na+ excreted,"Wistar rats; 0.1 mg/kg po, 4 hours",148%
same,Increase in amount of urine,"Wistar rats; 0.1 mg/kg po, 4 hours",105%
same,Na+/K+,Wistar rats; [2],2.72
same,Amount of creatinine in serum,"[1]; 0.01 mg/kg ip, 24 hours after glycerol; control 4.35 ± 0.23; **^1) p < 0.01 (Dunnett's test)",2.00 ± 0.21 mg/dL
same,Amount of urea-nitrogen in serum,"[1]; 0.01 mg/kg ip, 24 hours after glycerol; control 139.7 ± 10.2; marked ***^1)",69.9 ± 8.4 mg/dL
same,Amount of creatinine in serum,"[1]; 0.1 mg/kg ip, 24 hours after glycerol; control 4.35 ± 0.23; **^1) p < 0.01 (Dunnett's test)",2.32 ± 0.16 mg/dL
same,Amount of urea-nitrogen in serum,"[1]; 0.1 mg/kg ip, 24 hours after glycerol; control 139.7 ± 10.2; **^1) p < 0.01 (Dunnett's test)",64.4 ± 4.5 mg/dL
"CCCn1c(=O)c2[nH]c(C34CC5CC3CC(O)(C5)C4)nc2n(CCC)c1=O (stereo not drawn) [Compound 3, 8-(1-hydroxy-3-tricyclo[3.3.1.0^3,7]nonyl)-1,3-dipropylxanthine]",Ki,adenosine A1 receptor,500 pM
same,Increase in amount of K+ excreted,"Wistar rats; 0.025 mg/kg po, 4 hours",32%
same,Increase in amount of Na+ excreted,"Wistar rats; 0.025 mg/kg po, 4 hours",238%
same,Increase in amount of urine,"Wistar rats; 0.025 mg/kg po, 4 hours",324%
same,Na+/K+,"Wistar rats; 0.025 mg/kg po, 4 hours, control 1.00",2.55
same,Increase in amount of K+ excreted,"Wistar rats; 0.1 mg/kg po, 4 hours",18%
same,Increase in amount of Na+ excreted,"Wistar rats; 0.1 mg/kg po, 4 hours",272%
same,Increase in amount of urine,"Wistar rats; 0.1 mg/kg po, 4 hours",356%
same,Na+/K+,Wistar rats; [2],3.15
same,Amount of creatinine in serum,"[1]; 0.03 mg/kg ip, 24 hours after glycerol, control 3.57 ± 0.21, ***p < 0.001",1.64 ± 0.17 mg/dL
same,Amount of urea-nitrogen in serum,"[1]; 0.03 mg/kg ip, 24 hours after glycerol, control 149.7 ± 7.0, ***p < 0.001",49.0 ± 6.9 mg/dL
"CCCn1c(=O)c2[nH]c([C@@]34C[C@H]5C[C@@H]3C[C@@H](C4)[C@H]5O)nc2n(CCC)c1=O [Compound 4, 8-(cis-9-hydroxy-3-tricyclo[3.3.1.0^3,7]nonyl)-1,3-dipropylxanthine]",Ki,adenosine A1 receptor,310 pM
same,Increase in amount of K+ excreted,"Wistar rats; 0.01 mg/kg po, 4 hours",43%
same,Increase in amount of Na+ excreted,"Wistar rats; 0.01 mg/kg po, 4 hours",167%
same,Increase in amount of urine,"Wistar rats; 0.01 mg/kg po, 4 hours",200%
same,Na+/K+,Wistar rats; [6],1.86
same,Increase in amount of K+ excreted,"Wistar rats; 1.6 mg/kg po, 4 hours",35%
same,Increase in amount of Na+ excreted,"Wistar rats; 1.6 mg/kg po, 4 hours",180%
same,Increase in amount of urine,"Wistar rats; 1.6 mg/kg po, 4 hours",232%
same,Na+/K+,Wistar rats; [3],2.07
same,Amount of creatinine in serum,[1]; [4],2.00 ± 0.17 mg/dL
same,Amount of urea-nitrogen in serum,[1]; [5],76.0 ± 8.8 mg/dL
"CCCn1c(=O)c2[nH]c([C@]34C[C@@H]5[C@@H](O)[C@H](C3)[C@H]3[C@@H]5[C@H]34)nc2n(CCC)c1=O [Compound 5, 8-(Trans-9-hydroxy-3-tetracyclo[3.3.1.0^3,7 .0^6,8]-nonyl)-1,3-dipropylxanthine]",Ki,adenosine A1 receptor,310 pM
same,Increase in amount of K+ excreted,"Wistar rats; 0.0025 mg/kg po, 4 hours",8%
same,Increase in amount of Na+ excreted,"Wistar rats; 0.0025 mg/kg po, 4 hours",68%
same,Increase in amount of urine,"Wistar rats; 0.0025 mg/kg po, 4 hours",77%
same,Na+/K+,"Wistar rats; 0.0025 mg/kg po, 4 hours, control 1.00",1.56
same,Increase in amount of K+ excreted,"Wistar rats; 0.1 mg/kg po, 4 hours",23%
same,Increase in amount of Na+ excreted,"Wistar rats; 0.1 mg/kg po, 4 hours",277%
same,Increase in amount of urine,"Wistar rats; 0.1 mg/kg po, 4 hours",256%
same,Na+/K+,Wistar rats; [2],3.07
same,Amount of creatinine in serum,"[1]; 0.01 mg/kg ip, 24 hours after glycerol, control 3.90 ± 0.24, ***p < 0.001",2.18 ± 0.11 mg/dL
same,Amount of urea-nitrogen in serum,"[1]; 0.01 mg/kg ip, 24 hours after glycerol, control 124.9 ± 7.5, ***p < 0.001",61.3 ± 6.1 mg/dL
"Cn1c(=O)c2[nH]cnc2n(C)c1=O [aminophylline, reference compound]",effect on increases in serum creatinine and serum urea-nitrogen,[1],only a weak inhibitory tendancy
"NS(=O)(=O)c1cc(C(=O)O)c(NCc2ccco2)cc1Cl [furosemide, reference compound]",effect on increases in serum creatinine and serum urea-nitrogen,[1],a tendancy of deterioration
